# Assay results: paper PMC11123956, “Nobiletin Stimulates Adrenal Hormones and Modulates the Circadian Clock in Mice” (Nutrients, 2024)
# Key:
# [1] = Blood glucose after i.p. injection; type: in vivo, mice; conditions: 100 mg/kg, after 4 h fasting, 0-90 min
# Method: Male C57BL/6J mice (7 weeks old) were purchased from Charles River Japan (Kanagawa, Japan) and used for the serum hormone assay and RT-PCR. Male ICR mice were purchased from Tokyo Laboratory Animals Science Co., Ltd. (Tokyo, Japan), and female PERIOD2::LUCIFERASE (PER2::LUC) knock-in mice (ICR background) bred at Waseda University were used for blood glucose measurements and in vivo imaging assays, respectively. The mice were all housed under conditions of controlled temperature (23 °C ± 3 °C), humidity (50% ± 20%), and lighting (lights on from 07:00 to 19:00 at Taisho Pharmaceutical Co., Ltd. or from 08:00 to 20:00 at Waseda University). In the 24 h cycle, Zeitgeber time 0 (ZT0) was designated as the time when the lights were turned on, and ZT12 was designated as the time when the lights were turned off. […]
# Serum corticosterone, adrenaline, and adreno-corticotropic hormone (ACTH) levels, and corticotropin releasing factor (CRF) in the hypothalamus, were measured using enzyme-linked immunosorbent assay (ELISA). […] Blood glucose levels were measured using a Glucose PILOT kit (Aventir Biotech, LLC, Carlsbad, CA, USA). The range of blood glucose that could be precisely measured with the kit was 20–600 mg/dL. […]
# [2] = test system: CRF in the hypothalamus; test: CRF in the hypothalamus ELISA; type: in vivo, mice; conditions: an hour after injection (50 or 100 mg/kg)
# Method: (§1) Serum corticosterone, adrenaline, and adreno-corticotropic hormone (ACTH) levels, and corticotropin releasing factor (CRF) in the hypothalamus, were measured using enzyme-linked immunosorbent assay (ELISA). A corticosterone ELISA kit (Cayman Chemical Company, Ann Arbor, MI, USA), an adrenaline ELISA kit (Abcam, Cambridge, UK), an ACTH ELISA kit (Phoenix Pharmaceuticals Inc., Burlingame, CA, USA), and a CRF ELISA kit (Yanaihara Institute Inc., Shizuoka, Japan) were used. Assays were conducted according to the manufacturer’s instructions. Blood samples were collected from the mice at ZT4, 5, and 7 after the administration of nobiletin at ZT3 (10 mg/kg and 100 mg/kg, in Figure 3A,B). Blood glucose levels were measured using a Glucose PILOT kit (Aventir Biotech, LLC, Carlsbad, CA, USA). The range of blood glucose that could be precisely measured with the kit was 20–600 mg/dL. Before measurement, we administered nobiletin (100 mg/kg body weight) to the mice, after 4 h fasting. Blood was collected from the tail vein of each mouse for measurement. The measurements were conducted at 0, 15, 30, 45, 60, and 90 min after reagent administration in Figure 3C. Samples were collected one hour after nobiletin treatment (50 or 100 mg/kg; Figure 3D,E), or 2 or 4 h after treatment in Figure 3F. […]
# [3] = biological target: T1, PDE7A (Homo sapiens, UniProt Q13946); test: PDE enzyme  assay, PDE7A; type: biochemical
# T1 construct: purchased Eurofins Panlabs Discovery Services Taiwan, Ltd. (contract assay); host or cells: insect Sf9 cells
# Method: (§2) Enzyme assays for various subtypes of PDE (Table 1 and Figure 4) were conducted by Eurofins Panlabs Discovery Services Taiwan, Ltd. (New Taipei City, Taiwan). In the assays, five or six concentrations of nobiletin over five or six orders of magnitude were examined in experiments conducted in duplicate to determine the IC50 (concentration of nobiletin exerting half-maximal inhibition of control-specific activity). IC50 values were determined by nonlinear least squares regression analysis using MathIQTM (ID Business Solutions Ltd., Woking, UK). FAM-cAMP, FAM-cGMP (0.1 μM), and 100 μM [^3H]cGMP + cGMP were used for the substrate in the human recombinant insect Sf9 cells or Bovine retinal rod outer segments depending on the PDE subtype. The spectrofluorometric quantitation of fluorescein-AMP-IMAP, fluorescein-GMP-IMAP, or [^3H] guanosine was used depending on the PDE subtype. A known […] of each PDE was used as the positive control.
# [4] = biological target: T2, PDE7B (Homo sapiens, UniProt Q9NP56); test: PDE enzyme  assay, PDE7B; type: biochemical
# T2 construct: purchased Eurofins Panlabs Discovery Services Taiwan, Ltd. (contract assay); host or cells: insect Sf9 cells
# Method: as §2
# [5] = test system: serum ACTH; test: Serum ACTH ELISA; type: in vivo, mice; conditions: an hour after injection (50 or 100 mg/kg)
# Method: as §1
# T1 sequence (Q13946 whole entry): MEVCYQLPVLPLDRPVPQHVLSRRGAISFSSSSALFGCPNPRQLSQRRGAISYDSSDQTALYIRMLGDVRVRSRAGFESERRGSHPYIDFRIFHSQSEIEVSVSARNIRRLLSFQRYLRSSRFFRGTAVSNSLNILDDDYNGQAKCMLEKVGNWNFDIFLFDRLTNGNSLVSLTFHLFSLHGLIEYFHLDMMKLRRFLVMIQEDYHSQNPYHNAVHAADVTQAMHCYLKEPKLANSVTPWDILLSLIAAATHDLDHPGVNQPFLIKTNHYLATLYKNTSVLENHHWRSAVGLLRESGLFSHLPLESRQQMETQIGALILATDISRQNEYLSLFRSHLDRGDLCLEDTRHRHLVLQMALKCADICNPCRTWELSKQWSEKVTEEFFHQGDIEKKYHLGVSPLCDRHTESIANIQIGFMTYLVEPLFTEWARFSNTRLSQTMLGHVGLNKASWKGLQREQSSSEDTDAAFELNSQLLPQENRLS
# T2 sequence (Q9NP56 whole entry): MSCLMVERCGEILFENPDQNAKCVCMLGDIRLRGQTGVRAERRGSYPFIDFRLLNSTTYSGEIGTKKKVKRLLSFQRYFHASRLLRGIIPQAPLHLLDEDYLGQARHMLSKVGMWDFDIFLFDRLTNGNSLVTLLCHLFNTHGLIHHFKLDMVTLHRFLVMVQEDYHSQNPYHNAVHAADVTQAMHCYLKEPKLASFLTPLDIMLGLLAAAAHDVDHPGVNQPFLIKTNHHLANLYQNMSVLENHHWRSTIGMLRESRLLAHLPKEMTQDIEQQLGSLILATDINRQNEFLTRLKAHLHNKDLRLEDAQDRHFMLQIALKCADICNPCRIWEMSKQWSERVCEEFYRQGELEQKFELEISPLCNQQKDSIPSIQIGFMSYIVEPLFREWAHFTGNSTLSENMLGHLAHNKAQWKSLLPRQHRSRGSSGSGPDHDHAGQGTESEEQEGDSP
compound,measurement,setting,value
COc1ccc(-c2cc(=O)c3c(OC)c(OC)c(OC)c(OC)c3o2)cc1OC [nobiletin],blood glucose levels,[1],increased
same,CRF in the hypothalamus,[2],did not change significantly
same,IC50,[3],11.9 µM
same,IC50,[4],20.4 µM
same,serum ACTH,[5],did not change significantly
